Experimental data as given in patent US20220273678A1 (priority 2020, published 2022).
pIC50: −log10 of the molar value.

How the values were obtained:
SARS-CoV-2 Delta variant [1] = format: cell-based; details: 1000 nM Mito-MES; 1000 nM dTPP; CoQ10 1000-2000 nM
SARS-CoV-2 Beta variant [2] = test system: SARS-CoV-2 Beta variant; set-up: species or system mice; details: mouse, in vivo
SARS-CoV-2 Beta variant [3] = format: cell-based; details: for antiviral activity against Beta variant, viral titer assay: hACE2 HEK293T, 1000 nM dTPP, CoQ10 1000-2000 nM
SARS-CoV-2 Delta variant [4] = test system: SARS-CoV-2 Delta variant; set-up: species or system mice; details: mouse, in vivo
SARS-CoV-2 Beta = assay: microbe, parasite or virus in culture; format: cell-based; details: Severe acute respiratory syndrome coronavirus 2, Calu-3
SARS-CoV-2 Delta variant [5] = assay: microbe, parasite or virus in culture; format: cell-based; details: Severe acute respiratory syndrome coronavirus 2, Calu-3

Row | Structure (SMILES) | antiviral activity against Delta variant in ALI lung cultures (SARS-CoV-2 Delta variant [1]) | IL-lb, IL-6, TNFa in the lung (SARS-CoV-2 Beta variant [2]) | cleaved caspase 3 in lung, immunofluorescence (SARS-CoV-2 Beta variant [2]) | frequency of NK cells in lungs (SARS-CoV-2 Beta variant [2]) | histopathology: lung inflammation and tissue damage (SARS-CoV-2 Beta variant [2]) | time-of-addition study, intracellular N protein (SARS-CoV-2 Beta variant [3]) | SARS-CoV-2 N protein in lungs, ELISA (SARS-CoV-2 Delta variant [4]) | reduction of viral titer relative to vehicle (SARS-CoV-2 Delta variant [4]; po, 20 mg/kg) [log units] | pIC50 (SARS-CoV-2 Beta) | pIC50 (SARS-CoV-2 Delta variant [5]) | antiviral activity against Beta variant, viral titer assay (SARS-CoV-2 Beta variant [3])
1 | COC1=C(OC)C(=O)C(CCCCCCCCCC[P+](c2ccccc2)(c2ccccc2)c2ccccc2)=C(C)C1=O.CS(=O)(=O)[O-] [Mito-MES, 10-(4,5-dimethoxy-2-methyl-3,6-dioxo-1,4-cyclohexadienyl) decyl triphenylphosphonium methanesulfonate] | inhibited SARS-CoV-2 Delta variants in ALI lung cultures | reduction in IL-lb, IL-6, TNFa | inhibited SARS-CoV-2-associated increase in cleaved caspase 3 | reduced frequency of NK cells | reduction of lung inflammation and tissue damage | also even when added 4 hours after infection | further confirmed by ELISA | ~3 | 7.47 | 7.39 | 
2 | COC1=C(OC)C(=O)C(C/C=C(\C)CC/C=C(\C)CC/C=C(\C)CC/C=C(\C)CC/C=C(\C)CC/C=C(\C)CC/C=C(\C)CC/C=C(\C)CC/C=C(\C)CCC=C(C)C)=C(C)C1=O [CoQ10, Coenzyme Q10] | only higher concentrations (1000-2000 nM) |  |  |  |  |  |  |  |  |  | only higher concentrations (1000-2000 nM)
3 | CCCCCCCCCC[P+](c1ccccc1)(c1ccccc1)c1ccccc1.[Br-] [dTPP] | potent antiviral activity |  |  |  |  | reduced SARS-CoV-2 entry and had less impact on SARS-CoV-2 cytoplasmic replication |  |  |  |  | potent antiviral activity
